# In patent publication US20050107289A1, “Anti-microbial peptides and compositions” (priority 2001, published 2005):
# Like-named read-outs stand apart in the source and are kept apart here. Non-standard residues stand in square brackets, D forms with d. Residues, ends and D or L forms follow the SMILES beside them. Nle = CCCC[C@H](N)C(=O)O
# Experiments:
# [1] = system: murine red blood cells; experiment: Red blood cell hemolysis; format: cell-based, mouse; design: RBC Hemolysis (HD50): unit not given here
# Summary of the method: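 Washed murine erythrocytes at 5% in saline with 10% FBS were exposed to serial peptide dilutions for 30 min at 37° C. Supernatant absorbance at 560 nm was read, with saline as 0% and 1% Triton X-100 as 100% hemolysis.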
# [2] = system: S. aureus (MRSA) ATCC 33591; format: cell-based, Staphylococcus aureus; settings: Table 9
# Summary of the method: (§1)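 MICs come from NCCLS-style (M7-A4) dilution testing, mostly microdilution, with an inoculum near 2.5×10^5 cfu/ml from 4000-fold-diluted overnight cultures. Peptide series were 2-fold steps spanning roughly 400–2 μg/ml, prepared in 9% aqueous sucrose with 5% DMSO.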
# [3] = system: vancomycin-resistant Enterococus faecalis (VRE)(ATCC 51575); format: cell-based, Enterococcus faecalis; design: key to VRE (in vitro activity): peptide concentration in μg/ml (broth dilution assay); settings: Table 9
# Summary of the method: as §1
# [4] = media a: anti-microbial media-3 (AM-3)
# [5] = media b: cation adjusted Meuller Hinton broth (MHBII)
# [6] = media c: Brain Heart Infusion (BHI)
Compound,RBC Hemolysis (HD50) [1],"MRSA (in vitro activity) [2, 5]","VRE (in vitro activity) [3, 6]",other results
"CC(C)C[C@@H]1NC(=O)[C@@H](Cc2c[nH]c3ccccc23)NC(=O)[C@H](CCC(N)=O)NC(=O)[C@@H](Cc2c[nH]c3ccccc23)NC(=O)[C@H](CCCCN)NC(=O)[C@@H](Cc2c[nH]c3ccccc23)NC1=O [SEQ ID NO:116, [KWQWLW]] (cyclo(K[dW]Q[dW]L[dW]))",>16,–,–,"MRSA (in vitro activity) [2, 4]: 12; VRE (in vitro activity) ([3]; media a: AM-3): 12"
"C[C@H]1NC(=O)[C@H](CCCCN)NC(=O)[C@@H](CC(N)=O)NC(=O)[C@H](CCC(N)=O)NC(=O)[C@@H](C)NC(=O)[C@H](CCCCN)NC(=O)[C@@H](CC(N)=O)NC(=O)[C@H](Cc2c[nH]c3ccccc23)NC1=O [SEQ ID NO:96, [KAQNKAWN]] (cyclo(K[dA]Q[dN]K[dA]W[dN]))",>200,>200,>200,–
"CC(C)C[C@H]1NC(=O)[C@H](CCCCN)NC(=O)[C@@H](CO)NC(=O)[C@H](CCCCN)NC(=O)[C@@H](CC(C)C)NC(=O)[C@H](Cc2ccccc2)NC(=O)[C@@H](CC(C)C)NC(=O)[C@H](Cc2ccccc2)NC1=O [SEQ ID NO:54, [KSKLFLFL]] (cyclo(F[dL]F[dL]K[dS]K[dL]))",>200,–,200,"MRSA (in vitro activity) ([2]; media b: cation adjusted Meuller Hinton broth (MHBII), listed as [KSKLFLFL] (54)): 50"
"CC(C)C[C@@H]1NC(=O)[C@@H](Cc2c[nH]c3ccccc23)NC(=O)[C@H](CCCCN)NC(=O)[C@@H](Cc2c[nH]cn2)NC(=O)[C@H](CCC(N)=O)NC(=O)[C@@H](Cc2c[nH]cn2)NC(=O)[C@H](CCCCN)NC(=O)[C@@H](Cc2c[nH]c3ccccc23)NC1=O [SEQ ID NO:87, [KHQHKWLW]] (cyclo(K[dH]Q[dH]K[dW]L[dW]))",200,6,12,–
"CC(C)C[C@H]1NC(=O)[C@H](Cc2ccccc2)NC(=O)[C@@H](CCCCN)NC(=O)[C@H](CCCCN)NC(=O)[C@@H](CO)NC(=O)[C@H](CCCCN)NC(=O)[C@@H](CC(C)C)NC(=O)[C@H](Cc2ccccc2)NC1=O [SEQ ID NO:76, [KSKKFLFL]] (cyclo(K[dS]K[dK]F[dL]F[dL]))",100,5,10,–
"CC(C)C[C@H]1NC(=O)[C@H](CCCCN)NC(=O)[C@@H](Cc2c[nH]cn2)NC(=O)[C@H](CCC(N)=O)NC(=O)[C@@H](Cc2c[nH]cn2)NC(=O)[C@H](CCCCN)NC(=O)[C@@H](CC(C)C)NC(=O)[C@H](Cc2c[nH]c3ccccc23)NC1=O [SEQ ID NO:86, [KHQHKLWL]] (cyclo(K[dH]Q[dH]K[dL]W[dL]))",>200,100,100,–
"CCCC[C@@H]1NC(=O)[C@@H](CC(C)C)NC(=O)[C@H](CCCCN)NC(=O)[C@@H](CO)NC(=O)[C@H](CCCCN)NC(=O)[C@@H](CC(C)C)NC(=O)[C@H](CCCC)NC(=O)[C@@H](CC(C)C)NC1=O [SEQ ID NO:59, [KSKLNleLNleL]] (cyclo(K[dS]K[dL][Nle][dL][Nle][dL]))",>220,220,>200,–
"CC[C@@H](C)[C@H]1NC(=O)[C@H](C)NC(=O)[C@@H](Cc2c[nH]c3ccccc23)NC(=O)[C@H](C(C)C)NC(=O)[C@@H](CCCNC(=N)N)NC(=O)[C@H](CCCCN)NC1=O [SEQ ID NO:113, [KRVWAI]] (cyclo(K[dR]V[dW]A[dI]))",>200,>200,>200,–
[KSOLWLWL] [SEQ ID NO:63],–,12,25,RBC Hemolysis (HD50) ([1]; Table 9): 150
"CC(C)C[C@H]1NC(=O)[C@H](Cc2ccccc2)NC(=O)[C@@H](CC(C)C)NC(=O)[C@H](CCCCN)NC(=O)[C@@H]([C@H](C)O)NC(=O)[C@H](CCCCN)NC(=O)[C@@H](CC(C)C)NC(=O)[C@H](Cc2ccccc2)NC1=O [SEQ ID NO:65, [KTKLFLFL]] (cyclo(K[dT]K[dL]F[dL]F[dL]))",>240,60,>240,–
"CC(C)C[C@@H]1NC(=O)[C@@H](Cc2c[nH]c3ccccc23)NC(=O)[C@H](CCCCN)NC(=O)[C@@H](CCCCN)NC(=O)[C@H](CCCCN)NC(=O)[C@@H](Cc2c[nH]c3ccccc23)NC1=O [SEQ ID NO:121, [KKKWLW]] (cyclo(K[dK]K[dW]L[dW]))",>111,–,–,"MRSA (in vitro activity) [2, 4]: 23; VRE (in vitro activity) ([3]; media a: AM-3): 51"
"CC[C@H](C)[C@@H]1NC(=O)[C@@H](CC(C)C)NC(=O)[C@H](CCCCN)NC(=O)[C@@H](CO)NC(=O)[C@H](CCCCN)NC(=O)[C@@H](CC(C)C)NC(=O)[C@H]([C@@H](C)CC)NC(=O)[C@@H](CC(C)C)NC1=O [SEQ ID NO:57, [KSKLILIL]] (cyclo(I[dL]I[dL]K[dS]K[dL]))",>200,–,>200,"MRSA (in vitro activity) ([2]; media b: cation adjusted Meuller Hinton broth (MHBII), listed as [KSKLILIL] (57)): 200"
"C[C@H]1NC(=O)[C@H](CCC(N)=O)NC(=O)[C@@H](C)NC(=O)[C@H](CCCCN)NC(=O)[C@@H](C)NC(=O)[C@H](Cc2c[nH]c3ccccc23)NC(=O)[C@@H](C)NC(=O)[C@H](CCCCN)NC1=O [SEQ ID NO:95, [KAQAKAWA]] (cyclo(K[dA]Q[dA]K[dA]W[dA]))",>200,>200,>200,–
"NCCCC[C@@H]1NC(=O)[C@@H](Cc2ccccc2)NC(=O)[C@H](CCC(N)=O)NC(=O)[C@@H](Cc2ccccc2)NC(=O)[C@H](CCCCN)NC(=O)[C@@H](CC(N)=O)NC(=O)[C@H](Cc2c[nH]c3ccccc23)NC(=O)[C@@H](CC(N)=O)NC1=O [SEQ ID NO:98, [KFQFKNWN]] (cyclo(K[dF]Q[dF]K[dN]W[dN]))",>280,>200,>200,–
"CC(C)C[C@H]1NC(=O)[C@H](CCCCN)NC(=O)[C@@H](CO)NC(=O)[C@H](CCCCN)NC(=O)[C@@H](CC(C)C)NC(=O)[C@H](CCC(N)=O)NC(=O)[C@@H](CC(C)C)NC(=O)[C@H](CCC(N)=O)NC1=O [SEQ ID NO:104, [KSKLQLQL]] (cyclo(K[dS]K[dL]Q[dL]Q[dL]))",>200,>200,>200,–
"CC(C)C[C@H]1NC(=O)[C@H](CCCCN)NC(=O)[C@@H](Cc2c[nH]cn2)NC(=O)[C@H](CCCCN)NC(=O)[C@@H](CC(C)C)NC(=O)[C@H](Cc2c[nH]c3ccccc23)NC(=O)[C@@H](CC(C)C)NC(=O)[C@H](Cc2ccccc2)NC1=O [SEQ ID NO:49, [KHKLFLWL]] (cyclo(K[dH]K[dL]F[dL]W[dL]))",200,12,25,–
"CC(C)C[C@H]1NC(=O)[C@H](Cc2c[nH]c3ccccc23)NC(=O)[C@@H](CO)NC(=O)[C@H](CCCCN)NC(=O)[C@@H](CO)NC(=O)[C@H](CCCNC(=N)N)NC(=O)[C@@H](CC(C)C)NC(=O)[C@H](Cc2c[nH]c3ccccc23)NC1=O [SEQ ID NO:84, [KSWLWLRS]] (cyclo(K[dS]W[dL]W[dL]R[dS]))",>62,–,–,"MRSA (in vitro activity) [2, 4]: 9; VRE (in vitro activity) ([3]; media a: AM-3): 12"
"CC(C)C[C@H]1NC(=O)[C@H](CCCCN)NC(=O)[C@@H](CCCNC(=N)N)NC(=O)[C@H](CCCCN)NC(=O)[C@@H](CC(C)C)NC(=O)[C@H](Cc2ccccc2)NC(=O)[C@@H](CC(C)C)NC(=O)[C@H](Cc2ccccc2)NC1=O [SEQ ID NO:52, [KRKLFLFL]] (cyclo(K[dR]K[dL]F[dL]F[dL]))",>180,11,22,–
"CC(C)C[C@H]1NC(=O)[C@H](Cc2c[nH]c3ccccc23)NC(=O)[C@@H](Cc2c[nH]c3ccccc23)NC(=O)[C@H](CCCCN)NC(=O)[C@@H](CO)NC(=O)[C@H](CCCCN)NC(=O)[C@@H](CC(C)C)NC(=O)[C@H](Cc2c[nH]c3ccccc23)NC1=O [SEQ ID NO:67, [KWWLWLKS]] (cyclo(K[dW]W[dL]W[dL]K[dS]))",>153,7,–,VRE (in vitro activity) ([3]; media b: MHBII): 10
"CC(C)C[C@H]1NC(=O)[C@H](CCCCN)NC(=O)[C@@H](CC(C)C)NC(=O)[C@H](CCCCN)NC(=O)[C@@H](CC(C)C)NC(=O)[C@H](CCCCN)NC(=O)[C@@H](CC(C)C)NC(=O)[C@H](CCCCN)NC1=O [SEQ ID NO:4, KLKLKLKL] (cyclo(K[dL]K[dL]K[dL]K[dL]))",>200,>200,>200,–
"CC(C)C[C@H]1NC(=O)[C@H](CCCCN)NC(=O)[C@@H](CO)NC(=O)[C@H](CCCCN)NC(=O)[C@@H](CC(C)C)NC(=O)[C@H](CCCNC(=N)N)NC(=O)[C@@H](CC(C)C)NC(=O)[C@H](CCCNC(=N)N)NC1=O [SEQ ID NO:106, [KSKLRLRL]] (cyclo(K[dL]R[dL]R[dL]K[dS]))",>400,–,–,"MRSA (in vitro activity) ([2]; media b: cation adjusted Meuller Hinton broth (MHBII), listed as [KSKLRLRL] (106)): >400; VRE (in vitro activity) ([3]; media c: Brain Heart Infusion (BHI), listed as [KSKLRLRL] (106)): >400"
"CC(C)C[C@H]1NC(=O)[C@H](Cc2ccccc2)NC(=O)[C@@H](Cc2c[nH]cn2)NC(=O)[C@H](CCCCN)NC(=O)[C@@H](Cc2c[nH]cn2)NC(=O)[C@H](CCCCN)NC(=O)[C@@H](CC(C)C)NC(=O)[C@H](Cc2c[nH]c3ccccc23)NC1=O [SEQ ID NO:72, [KHKHFLWL]] (cyclo(K[dH]K[dH]F[dL]W[dL]))",200,8,16,–
